In patent publication US6225334A (priority 1996, dated 2001):
Read-outs that look alike come from different tables or passages of the source.

Tests used:
Phytophthora infestans = type: in vivo; conditions: 3 days after the inoculation, tomato, protective
logP (HPLC) = type: physicochemical
[1] = test system: greenhouse red spider mite (Tetranychus urticae); assay: Tetranychus-Test (OP-resistant/dip treatment); conditions: 168 h, read-out: kill
Protocol: 7.5 parts by weight of dimethylformamide
100 parts by weight of methanol
Emulsifier: 2.5 parts by weight of alkylaryl polyglycol ether
After the desired period of time, the activity in % is determined. 100% means that all spider mites have been killed; 0% means that none of the spider mites have been killed.

[2] = test system: beet army-worm (Spodoptera frugiperda); assay: Spodoptera test; type: in vivo; conditions: 216 h, active compound concentration of 0.05%, after 9 days, larvae L2-L3 on synthetic feed, read-out: kill
Protocol: 100 parts by weight of acetone
1900 parts by weight of methanol
A stated amount of the preparation of active compound of the desired concentration is pipetted onto a standardized amount of synthetic feed. In 3 replications, one larva (L2 -L3) each of the beet army-worm (Spodoptera frugiperda) is placed on the feed.
After the desired period of time, the kill in % is determined.

Plasmopara viticola = assay: Plasmopara-Test (Grapevines)/protective; type: in vivo; conditions: application rate of 50 g/ha, 6 days after the inoculation, protective
[3] = first of two values printed (x/y)

| Structure (SMILES) | chromatographic logP (logP (HPLC); [3]) | chromatographic logP (logP (HPLC); second of two values) | other results |
| --- | --- | --- | --- |
| COc1ccc(CCNC(=O)C(=NOC(C)=O)c2ccc3c(c2)CCCC3)cc1OC [Example I-1, N-[(3,4-dimethoxyphenyl)-2-ethyl]-2-acetoxyimino-2-(2-tetrahydronaphthyl)-acetamide] | – | – | efficacy compared to the untreated control (Phytophthora infestans; application rate of 50 g/ha): 95% |
| CCOC(=O)ON=C(C(=O)NCCc1ccc(OC)c(OC)c1)c1ccc2c(c1)CCCC2 [Example I-3] | 3.19 | 3.55 | – |
| COc1ccc(CCNC(=O)C(=NOC(=O)OC(C)C)c2ccc3c(c2)CCCC3)cc1OC [Example I-4] | 3.55 | 3.84 | – |
| COc1ccc(CCNC(=O)C(=NOC(=O)Oc2ccccc2)c2ccc3c(c2)CCCC3)cc1OC [Example I-5] | 3.82 | 4.09 | – |
| COc1ccc(CCNC(=O)C(=NOC(=O)OC2CCCCC2)c2ccc3c(c2)CCCC3)cc1OC [Example I-6] | 4.2 | 4.62 | – |
| COc1ccc(CCNC(=O)C(=NOC(=O)c2ccccc2)c2ccc3c(c2)CCCC3)cc1OC [Example I-7] | 3.69 | 4.1 | – |
| CCOC(=O)ON=C(C(=O)NCCc1ccc(OC)c(OC)c1)c1ccc(Br)cc1 [Example I-10] | – | – | chromatographic logP (logP (HPLC); single value given): 3.19 |
| COC(=O)ON=C(C(=O)NCCc1ccc(OC)c(OC)c1)c1ccc2c(c1)CCC2 [Example I-11] | 2.78 | 2.97 | – |
| COc1ccc(CCNC(=O)C(=NOC(C)=O)c2ccc3c(c2)CCC3)cc1OC [Example I-12] | 2.65 | 2.87 | – |
| CCOC(=O)ON=C(C(=O)NCCc1ccc(OC)c(OC)c1)c1ccc2c(c1)CCC2 [Example I-13] | 3.04 | 3.27 | – |
| CCc1ccc(C(=NOC(=O)OC)C(=O)NCCc2ccc(OC)c(OC)c2)cc1 [Example I-14] | 2.73 | 2.94 | mortality at 0.05 % [1]: 100% |
| CCOC(=O)ON=C(C(=O)NCCc1ccc(OC)c(OC)c1)c1ccc(CC)cc1 [Example I-15] | – | – | chromatographic logP (logP (HPLC); single value given): 2.98 |
| CCc1ccc(C(=NOC(C)=O)C(=O)NCCc2ccc(OC)c(OC)c2)cc1 [Example I-16] | 2.42 | 2.6 | – |
| CCON=C(C(=S)NCCc1ccc(OC)c(OC)c1)c1ccc(Cl)cc1 [Example II-1, N-[2-(3,4-dimethoxyphenyl)-ethyl]-2-ethoximino-2-(4-chlorophenyl)-thioacetamide] | – | – | chromatographic logP (logP (HPLC); e isomer): 3.73; chromatographic logP (logP (HPLC); z isomer): 4.03 |
| CCON=C(C(=O)NCCc1ccc(OC)c(OC)c1)c1ccc(Cl)cc1 [Example II-II-1] | – | – | chromatographic logP (logP (HPLC); e isomer): 3.07; chromatographic logP (logP (HPLC); z isomer): 3.34 |
| CCON=C(C(=O)NCCc1ccc(OC)c(OC)c1)c1ccc2c(c1)OCC2 [Example III-1, N-[2-(3,4dimethoxyphenyl)-ethyl]-2-(2,3-dihydrobenzofuran-6-yl)2-ethoximino-acetamide] | – | – | efficacy compared to the untreated control (Phytophthora infestans; application rate of 500 g/ha): 95% |
| CCON=C(C(=O)NCCc1ccc(OC)c(OC)c1)c1ccc2c(c1)Cc1ccccc1C2 [Example IV-1] | – | – | chromatographic logP (logP (HPLC); e isomer): 3.62; chromatographic logP (logP (HPLC); z isomer): 4 |
| CCON=C(C(=S)NCCc1ccc(OC)c(OC)c1)c1ccc2c(c1)CCCC2 [II-2] | 4.13 | 4.41 | – |
| CON=C(C(=S)NCCc1ccc(OC)c(OC)c1)c1ccc(C)cc1 [II-3] | 3.15 | 3.41 | – |
| CCc1ccc(C(=NOC)C(=S)NCCc2ccc(OC)c(OC)c2)cc1 [II-4] | 3.5 | 3.77 | mortality at 0.05 % [2]: 100% |
| CCON=C(C(=S)NCCc1ccc(OC)c(OC)c1)c1ccc(Br)cc1 [II-5] | 3.82 | 4.14 | – |
| CON=C(C(=S)NCCc1ccc(OC)c(OC)c1)c1ccc(Br)cc1 [II-6] | 3.5 | 3.8 | efficacy compared to the untreated control (Plasmopara viticola): 89% |
| CCON=C(C(=S)NCCc1ccc(OC)c(OC)c1)c1cccc(CC)c1 [II-8] | 3.82 | 4.09 | – |
| CCON=C(C(=S)NCCc1ccc(OC)c(OC)c1)c1ccc2c(c1)CCC2 [II-10] | 3.87 | 4.13 | – |
| CON=C(C(=O)NCCc1ccc(OC)c(OC)c1)c1ccc2c(c1)OCC2 [III-2] | 2.24 | 2.46 | – |
| CON=C(C(=O)NCCc1ccc(OC)c(OC)c1)c1ccc2c(c1)CCc1ccccc1C2 [IV-2] | 3.61 | 3.87 | efficacy compared to the untreated control (Phytophthora infestans; application rate of 50 g/ha): 96% |
| CCON=C(C(=O)NCCc1ccc(OC)c(OC)c1)c1ccc2c(c1)CCc1ccccc1C2 [IV-3] | 3.91 | 4.2 | efficacy compared to the untreated control (Phytophthora infestans; application rate of 50 g/ha): 96% |
| CON=C(C(=O)NCCc1ccc(OC)c(OC)c1)c1ccc2c(c1)Cc1ccccc1C2 [IV-4] | 3.31 | 3.68 | – |
